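All cell lines were grown in 96-well plates and treated with compound for 48 hours. At the GI50, growth is halved.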 Active and inactive are the calls of the source. No stated cut-off is given here; in the data, active = GI50 up to about 1.1 µM and inactive = higher.
What was measured:
Assay in all cases: DTP human tumour cell line panel, 48 h
[1] = test system: A549
[2] = test system: ACHN
[3] = test system: CAKI-1
[4] = test system: DU-145
[5] = test system: HL-60
[6] = test system: HOP-62
[7] = test system: HT-29
[8] = test system: LOX IMVI
[9] = test system: M14
[10] = test system: NCI-H23
[11] = test system: NCI/ADR-RES
[12] = test system: OVCAR-8
[13] = test system: SF-295
[14] = test system: SK-MEL-28
[15] = test system: SK-OV-3
[16] = test system: SNB-19
[17] = test system: SNB-75
[18] = test system: SR
[19] = test system: SW-620
[20] = test system: U-251

Structure (SMILES): C=CCNC1=C2C[C@@H](C)C[C@@H](OC)[C@H](OC(=O)CCN)[C@H](C)/C=C(\C)[C@@H](OC(N)=O)[C@H](OC)/C=C\C=C(/C)C(=O)NC(=CC1=O)C2=O
- GI50 [1]: 3.4 µM (inactive)
- GI50 [2]: 12.6 µM (inactive)
- GI50 [3]: 12.2 µM (inactive)
- GI50 [4]: 1.21 µM (inactive)
- GI50 [5]: 3.83 µM (inactive)
- GI50 [6]: 3.53 µM (inactive)
- GI50 [7]: 0.409 µM (active)
- GI50 [8]: 3.03 µM (inactive)
- GI50 [9]: 3.71 µM (inactive)
- GI50 [10]: 3.01 µM (inactive)
- GI50 [11]: 76.2 µM (inactive)
- GI50 [12]: 4.18 µM (inactive)
- GI50 [13]: 3.75 µM (inactive)
- GI50 [14]: 14.5 µM (inactive)
- GI50 [15]: 1.35 µM (inactive)
- GI50 [16]: 6.27 µM (inactive)
- GI50 [17]: 3.18 µM (inactive)
- GI50 [18]: 0.938 µM (active)
- GI50 [19]: 3.6 µM (inactive)
- GI50 [20]: 5.09 µM (inactive)

Structure (SMILES): COc1cccc2c1OC(c1ccc(C#N)cc1)C([N+](=O)[O-])=C2 (stereo not given)
- GI50 [1]: 2.56 µM (inactive)
- GI50 [2]: 1.77 µM (inactive)
- GI50 [3]: 0.908 µM (active)
- GI50 [4]: 3.12 µM (inactive)
- GI50 [5]: 1.41 µM (inactive)
- GI50 [6]: 3.21 µM (inactive)
- GI50 [7]: 1.72 µM (inactive)
- GI50 [8]: 1.91 µM (inactive)
- GI50 [9]: 1.78 µM (inactive)
- GI50 [10]: 1.71 µM (inactive)
- GI50 [11]: > 100 µM (inactive)
- GI50 [12]: 1.25 µM (inactive)
- GI50 [13]: 6.14 µM (inactive)
- GI50 [14]: 2.28 µM (inactive)
- GI50 [15]: 3.23 µM (inactive)
- GI50 [16]: 6.46 µM (inactive)
- GI50 [17]: 2.47 µM (inactive)
- GI50 [18]: 0.778 µM (active)
- GI50 [19]: 1.42 µM (inactive)
- GI50 [20]: 1.86 µM (inactive)

Structure (SMILES): Oc1ccc(-c2nc(-c3cccnc3)c(-c3ccc(F)cc3)[nH]2)cc1
- GI50 [1]: 21.8 µM (inactive)
- GI50 [2]: 20.5 µM (inactive)
- GI50 [3]: 28.6 µM (inactive)
- GI50 [4]: 24 µM (inactive)
- GI50 [5]: 15.8 µM (inactive)
- GI50 [6]: 21.6 µM (inactive)
- GI50 [7]: 18.1 µM (inactive)
- GI50 [8]: 12.5 µM (inactive)
- GI50 [9]: 17.7 µM (inactive)
- GI50 [10]: 12.7 µM (inactive)
- GI50 [11]: 19 µM (inactive)
- GI50 [12]: 17.9 µM (inactive)
- GI50 [13]: 16.7 µM (inactive)
- GI50 [14]: 19.9 µM (inactive)
- GI50 [15]: 23.4 µM (inactive)
- GI50 [16]: 25.2 µM (inactive)
- GI50 [17]: 18.2 µM (inactive)
- GI50 [18]: 16.9 µM (inactive)
- GI50 [19]: 17.8 µM (inactive)
- GI50 [20]: 17.3 µM (inactive)

Structure (SMILES): Cc1cn(C2C=CC(COP(=O)(OCC3=CC(=O)c4ccccc4C3=O)N(C)CCCCCl)O2)c(=O)[nH]c1=O (stereo not given)
- GI50 [1]: 1.6 µM (inactive)
- GI50 [2]: 13.6 µM (inactive)
- GI50 [3]: 13.2 µM (inactive)
- GI50 [4]: 1.57 µM (inactive)
- GI50 [5]: 1.42 µM (inactive)
- GI50 [6]: 11.7 µM (inactive)
- GI50 [7]: 12.7 µM (inactive)
- GI50 [8]: 2.38 µM (inactive)
- GI50 [9]: 1.18 µM (inactive)
- GI50 [10]: 2.39 µM (inactive)
- GI50 [11]: 16.4 µM (inactive)
- GI50 [12]: 13.7 µM (inactive)
- GI50 [13]: 2.59 µM (inactive)
- GI50 [14]: 5.15 µM (inactive)
- GI50 [15]: 11 µM (inactive)
- GI50 [16]: 12 µM (inactive)
- GI50 [17]: 1.55 µM (inactive)
- GI50 [18]: 0.0473 µM (active)
- GI50 [19]: 5.13 µM (inactive)
- GI50 [20]: 5.38 µM (inactive)

Structure (SMILES): CCN(CC)CCN1c2ccccc2Sc2ccc3ccccc3c21
- GI50 [1]: 14.2 µM (inactive)
- GI50 [2]: 13.7 µM (inactive)
- GI50 [3]: 8.89 µM (inactive)
- GI50 [4]: 3.93 µM (inactive)
- GI50 [5]: 3.54 µM (inactive)
- GI50 [6]: 14.9 µM (inactive)
- GI50 [7]: 3.18 µM (inactive)
- GI50 [8]: 7.52 µM (inactive)
- GI50 [9]: 3.01 µM (inactive)
- GI50 [10]: 15.5 µM (inactive)
- GI50 [11]: 10.6 µM (inactive)
- GI50 [12]: 12.6 µM (inactive)
- GI50 [13]: 13.2 µM (inactive)
- GI50 [14]: 7.46 µM (inactive)
- GI50 [15]: 15.8 µM (inactive)
- GI50 [16]: 15.3 µM (inactive)
- GI50 [17]: 7.06 µM (inactive)
- GI50 [18]: 4.94 µM (inactive)
- GI50 [19]: 11.4 µM (inactive)
- GI50 [20]: 9.38 µM (inactive)

Structure (SMILES): Clc1ccc(-c2cn3c(nc4ccccc43)c(-c3ccccc3)n2)cc1
- GI50 [1]: 17.4 µM (inactive)
- GI50 [2]: 29.6 µM (inactive)
- GI50 [3]: 16.3 µM (inactive)
- GI50 [4]: > 71.9 µM (inactive)
- GI50 [5]: > 100 µM (inactive)
- GI50 [6]: 11.5 µM (inactive)
- GI50 [7]: 10.8 µM (inactive)
- GI50 [8]: 32 µM (inactive)
- GI50 [9]: 28.3 µM (inactive)
- GI50 [10]: 24.5 µM (inactive)
- GI50 [11]: 34.9 µM (inactive)
- GI50 [12]: 12.1 µM (inactive)
- GI50 [13]: 13.3 µM (inactive)
- GI50 [14]: 39.8 µM (inactive)
- GI50 [15]: 11.6 µM (inactive)
- GI50 [16]: 13.9 µM (inactive)
- GI50 [17]: 9.51 µM (inactive)
- GI50 [18]: > 82 µM (inactive)
- GI50 [19]: 43.3 µM (inactive)
- GI50 [20]: 12.8 µM (inactive)

Structure (SMILES): CC1=CC(C/C(C)=C/COc2ccc3ccc(=O)oc3c2)OC1=O (stereo not given)
- GI50 [1]: > 100 µM (inactive)
- GI50 [2]: > 100 µM (inactive)
- GI50 [3]: > 100 µM (inactive)
- GI50 [4]: > 100 µM (inactive)
- GI50 [5]: 59.4 µM (inactive)
- GI50 [6]: > 100 µM (inactive)
- GI50 [7]: > 100 µM (inactive)
- GI50 [8]: > 100 µM (inactive)
- GI50 [9]: > 100 µM (inactive)
- GI50 [10]: 50.7 µM (inactive)
- GI50 [11]: 27.4 µM (inactive)
- GI50 [12]: > 100 µM (inactive)
- GI50 [13]: > 100 µM (inactive)
- GI50 [14]: > 100 µM (inactive)
- GI50 [15]: > 100 µM (inactive)
- GI50 [16]: > 100 µM (inactive)
- GI50 [17]: > 100 µM (inactive)
- GI50 [18]: 95.1 µM (inactive)
- GI50 [19]: > 100 µM (inactive)
- GI50 [20]: 90.4 µM (inactive)

Structure (SMILES): Nc1ccc(Oc2ccc(C34CC5CC(C3)CC(c3ccc(Oc6ccc(N)cc6)cc3)(C5)C4)cc2)cc1
- GI50 [1]: 11.1 µM (inactive)
- GI50 [2]: 19.5 µM (inactive)
- GI50 [3]: 13.5 µM (inactive)
- GI50 [4]: 7.43 µM (inactive)
- GI50 [5]: > 41.3 µM (inactive)
- GI50 [6]: 17.5 µM (inactive)
- GI50 [7]: 8.11 µM (inactive)
- GI50 [8]: 6.25 µM (inactive)
- GI50 [9]: 10.4 µM (inactive)
- GI50 [10]: 7.8 µM (inactive)
- GI50 [11]: 13.9 µM (inactive)
- GI50 [12]: 5.26 µM (inactive)
- GI50 [13]: 10.3 µM (inactive)
- GI50 [14]: 18.9 µM (inactive)
- GI50 [15]: 22.2 µM (inactive)
- GI50 [16]: 12 µM (inactive)
- GI50 [17]: 24 µM (inactive)
- GI50 [18]: 3.56 µM (inactive)
- GI50 [19]: > 25.5 µM (inactive)
- GI50 [20]: 5.43 µM (inactive)

Structure (SMILES): CC(C)(C)OC(=O)n1c2ccccc2c2c(=O)nc(N3CCCCC3)sc21
- GI50 [1]: > 100 µM (inactive)
- GI50 [2]: > 100 µM (inactive)
- GI50 [3]: > 100 µM (inactive)
- GI50 [4]: > 100 µM (inactive)
- GI50 [5]: > 100 µM (inactive)
- GI50 [6]: > 100 µM (inactive)
- GI50 [7]: > 100 µM (inactive)
- GI50 [8]: > 100 µM (inactive)
- GI50 [9]: > 100 µM (inactive)
- GI50 [10]: > 100 µM (inactive)
- GI50 [11]: > 100 µM (inactive)
- GI50 [12]: > 100 µM (inactive)
- GI50 [13]: > 100 µM (inactive)
- GI50 [14]: > 100 µM (inactive)
- GI50 [15]: > 100 µM (inactive)
- GI50 [16]: > 100 µM (inactive)
- GI50 [17]: > 100 µM (inactive)
- GI50 [18]: 90.4 µM (inactive)
- GI50 [19]: > 100 µM (inactive)
- GI50 [20]: > 100 µM (inactive)

Structure (SMILES): O=C(NCCCCCCCN1CCCCCCC1)C(C1CCCCC1)C1CCCCC1
- GI50 [1]: 11.7 µM (inactive)
- GI50 [2]: 12 µM (inactive)
- GI50 [3]: 7.14 µM (inactive)
- GI50 [4]: 13.8 µM (inactive)
- GI50 [5]: 5.14 µM (inactive)
- GI50 [6]: 3.97 µM (inactive)
- GI50 [7]: 2.82 µM (inactive)
- GI50 [8]: 12 µM (inactive)
- GI50 [9]: 2.01 µM (inactive)
- GI50 [10]: 12.9 µM (inactive)
- GI50 [11]: 9.98 µM (inactive)
- GI50 [12]: 12.3 µM (inactive)
- GI50 [13]: 11.4 µM (inactive)
- GI50 [14]: 6.08 µM (inactive)
- GI50 [15]: 11.3 µM (inactive)
- GI50 [16]: 14.3 µM (inactive)
- GI50 [17]: 9.79 µM (inactive)
- GI50 [18]: 2.34 µM (inactive)
- GI50 [19]: 12.1 µM (inactive)
- GI50 [20]: 8.51 µM (inactive)
